Test results: US20200339691A1, “PROTEINACEOUS MOLECULES AND USES THEREFOR” (priority 2018, published 2020)
Where a SMILES comes first, the peptide text is derived from it. The star is where a group is joined. Myristoyl = CCCCCCCCCCCCCC(=O)*

Key:
[1] = test system: PD-L1; assay: PD-L1 in MDA-MB-231 mouse xenografts treated with abraxane or docetaxel; format: in vivo; conditions: 35 days, compared with untreated cells
Experimental: The expression of PD-L1 in mouse MDA-MB-231 xenografts treated for 35 days with abraxane (60 mg/kg) or docetaxel (10 mg/kg) was investigated using confocal laser scanning microscopy.
Five-week-old female nude mice were acquired and allowed to acclimatize for one week in the animal facility before experimentation. All experimental procedures were accessed and approved by The Australian National University Animal Experimental Ethics Committee (Ethics ID A2014/30). MDA-MB-231 human breast carcinoma cells were injected subcutaneously into the right mammary gland (2×10^6 cells in 1:1 PBS and BD Matrigel Matrix). Tumors were measured using external calipers and calculated using the modified ellipsoidal formula: […], where a=longest diameter and b=shortest diameter. Tumors were allowed to grow to around 50 mm^3 before commencing treatments (around 15 days). Abraxane (60 mg/kg) or Docetaxel (10 mg/kg) were administered by i.p. injection. Tumors were excised and collected in DMEM supplemented with 2.5% FCS. […] Digested tumors were spun and resuspended in DMEM, 2.5% FCS before being passed through a […] filter and PD-L1 nuclear localization was assessed using immunofluorescence microscopy as described supra.

[2] = test system: CD44^hiCD24^lo CSCs in MDA-MB-231 cells; assay: FACS analysis of CD44^hiCD24^lo cancer stem cells in MDA-MB-231 cells treated with P1 analogues; format: cell-based, human; conditions: 50 μM peptide, 48 hours, n = 1;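 on CD44^hiCD24^lo CSCs (%): CSC share is CD44hiCD24lo events over live Hoechst-negative cells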
Experimental: Analogues of P1 (Table 6) were designed and synthesized in accordance with the procedure of Example 5. The ability of these analogues to inhibit cancer stem cells was determined using FACS analysis on MDA-MB-231 cells, which constitutively contain approximately 90% CD44^hiCD24^lo cancer stem cells, treated with the peptides.
(§1) Non-adherent cells were removed during the washing steps.

[3] = test system: MDA-MB-231 cells; format: cell-based, human; conditions: 50 μM peptide, 48 hours, n = 1;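 on COI, Live Single Cells (Cell Count): live means Hoechst-negative events among single cells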
Description: as §1

[4] = test system: PD-L1; assay: Immunofluorescence (confocal) of PD-L1 in MDA-MB-231 cells, Example 6; format: cell-based, human; conditions: 50 μM, 72 hours
Experimental: (§2) Confocal laser scanning microscopy was employed to investigate the effect of P1, P2 and P3 (synthesized in accordance with Example 5) on the nuclear expression of PD-L1 and acetylated PD-L1 (PDL1-Ac) (FIG. 9).
(§3) 1×10^4 MDA-MB-231 cells were seeded onto coverslips in 12 well plates with DMEM media overnight. Cells were treated with 50 μM P1, P2, P3 or P4 or vehicle (water) for 72 hours. Treated cells were fixed with 3.7% formaldehyde, and then permeabilised by incubating with 1% Triton X-100 for 20 min. Cells were then probed with a rabbit anti-PD-L1 antibody (Santa Cruz Biotechnology) or rabbit anti-acetylated PD-L1 (generated as described above) and visualized with a donkey anti-rabbit AF 488. Cover slips were mounted on glass microscope slides with ProLong Diamond Antifade reagent (Life Technologies). Protein targets were localized using confocal laser scanning microscopy. Single 0.5 μm sections were obtained using a Leica DMI8 microscope using 100× oil immersion lens running LAX software. The final image was obtained by averaging four sequential images of the same section. Digital images were analyzed using ImageJ software as described above.

[5] = test system: PD-L1 acetylated at lysine 263; assay: Immunofluorescence (confocal) of acetylated PD-L1 in MDA-MB-231 cells, Example 6; format: cell-based, human; conditions: 50 μM, 72 hours
Experimental: as §2, §3

[6] = test system: EHTM2; assay: Immunofluorescence of EHTM2 in MDA-MB-231 cells; format: cell-based, human; conditions: 50 μM, 72 hours
Experimental: (§4) Cells were treated with 50 μM P1, P2, P3 or P4 (synthesized in accordance with Example 5) or vehicle (water) for 72 hours. […] Confocal laser scanning microscopy was used to measure the […] and TCFI as described above. At least 20 individual cells were analyzed per sample.

[7] = test system: DMNTI; assay: Immunofluorescence of DMNTI in MDA-MB-231 cells; format: cell-based, human; conditions: 50 μM, 72 hours
Experimental: as §4

[8] = test system: SETDB1; assay: Immunofluorescence of SETDB1 in MDA-MB-231 cells; format: cell-based, human; conditions: 50 μM, 72 hours
Experimental: as §4

[9] = target: T1, p300 (Homo sapiens, UniProt Q09472); assay: Immunofluorescence of p300 localization in MDA-MB-231 cells; format: cell-based; conditions: 50 μM
T1 construct: endogenous in cells; host or cells: MDA-MB-231
T1 sequence (Q09472 whole entry): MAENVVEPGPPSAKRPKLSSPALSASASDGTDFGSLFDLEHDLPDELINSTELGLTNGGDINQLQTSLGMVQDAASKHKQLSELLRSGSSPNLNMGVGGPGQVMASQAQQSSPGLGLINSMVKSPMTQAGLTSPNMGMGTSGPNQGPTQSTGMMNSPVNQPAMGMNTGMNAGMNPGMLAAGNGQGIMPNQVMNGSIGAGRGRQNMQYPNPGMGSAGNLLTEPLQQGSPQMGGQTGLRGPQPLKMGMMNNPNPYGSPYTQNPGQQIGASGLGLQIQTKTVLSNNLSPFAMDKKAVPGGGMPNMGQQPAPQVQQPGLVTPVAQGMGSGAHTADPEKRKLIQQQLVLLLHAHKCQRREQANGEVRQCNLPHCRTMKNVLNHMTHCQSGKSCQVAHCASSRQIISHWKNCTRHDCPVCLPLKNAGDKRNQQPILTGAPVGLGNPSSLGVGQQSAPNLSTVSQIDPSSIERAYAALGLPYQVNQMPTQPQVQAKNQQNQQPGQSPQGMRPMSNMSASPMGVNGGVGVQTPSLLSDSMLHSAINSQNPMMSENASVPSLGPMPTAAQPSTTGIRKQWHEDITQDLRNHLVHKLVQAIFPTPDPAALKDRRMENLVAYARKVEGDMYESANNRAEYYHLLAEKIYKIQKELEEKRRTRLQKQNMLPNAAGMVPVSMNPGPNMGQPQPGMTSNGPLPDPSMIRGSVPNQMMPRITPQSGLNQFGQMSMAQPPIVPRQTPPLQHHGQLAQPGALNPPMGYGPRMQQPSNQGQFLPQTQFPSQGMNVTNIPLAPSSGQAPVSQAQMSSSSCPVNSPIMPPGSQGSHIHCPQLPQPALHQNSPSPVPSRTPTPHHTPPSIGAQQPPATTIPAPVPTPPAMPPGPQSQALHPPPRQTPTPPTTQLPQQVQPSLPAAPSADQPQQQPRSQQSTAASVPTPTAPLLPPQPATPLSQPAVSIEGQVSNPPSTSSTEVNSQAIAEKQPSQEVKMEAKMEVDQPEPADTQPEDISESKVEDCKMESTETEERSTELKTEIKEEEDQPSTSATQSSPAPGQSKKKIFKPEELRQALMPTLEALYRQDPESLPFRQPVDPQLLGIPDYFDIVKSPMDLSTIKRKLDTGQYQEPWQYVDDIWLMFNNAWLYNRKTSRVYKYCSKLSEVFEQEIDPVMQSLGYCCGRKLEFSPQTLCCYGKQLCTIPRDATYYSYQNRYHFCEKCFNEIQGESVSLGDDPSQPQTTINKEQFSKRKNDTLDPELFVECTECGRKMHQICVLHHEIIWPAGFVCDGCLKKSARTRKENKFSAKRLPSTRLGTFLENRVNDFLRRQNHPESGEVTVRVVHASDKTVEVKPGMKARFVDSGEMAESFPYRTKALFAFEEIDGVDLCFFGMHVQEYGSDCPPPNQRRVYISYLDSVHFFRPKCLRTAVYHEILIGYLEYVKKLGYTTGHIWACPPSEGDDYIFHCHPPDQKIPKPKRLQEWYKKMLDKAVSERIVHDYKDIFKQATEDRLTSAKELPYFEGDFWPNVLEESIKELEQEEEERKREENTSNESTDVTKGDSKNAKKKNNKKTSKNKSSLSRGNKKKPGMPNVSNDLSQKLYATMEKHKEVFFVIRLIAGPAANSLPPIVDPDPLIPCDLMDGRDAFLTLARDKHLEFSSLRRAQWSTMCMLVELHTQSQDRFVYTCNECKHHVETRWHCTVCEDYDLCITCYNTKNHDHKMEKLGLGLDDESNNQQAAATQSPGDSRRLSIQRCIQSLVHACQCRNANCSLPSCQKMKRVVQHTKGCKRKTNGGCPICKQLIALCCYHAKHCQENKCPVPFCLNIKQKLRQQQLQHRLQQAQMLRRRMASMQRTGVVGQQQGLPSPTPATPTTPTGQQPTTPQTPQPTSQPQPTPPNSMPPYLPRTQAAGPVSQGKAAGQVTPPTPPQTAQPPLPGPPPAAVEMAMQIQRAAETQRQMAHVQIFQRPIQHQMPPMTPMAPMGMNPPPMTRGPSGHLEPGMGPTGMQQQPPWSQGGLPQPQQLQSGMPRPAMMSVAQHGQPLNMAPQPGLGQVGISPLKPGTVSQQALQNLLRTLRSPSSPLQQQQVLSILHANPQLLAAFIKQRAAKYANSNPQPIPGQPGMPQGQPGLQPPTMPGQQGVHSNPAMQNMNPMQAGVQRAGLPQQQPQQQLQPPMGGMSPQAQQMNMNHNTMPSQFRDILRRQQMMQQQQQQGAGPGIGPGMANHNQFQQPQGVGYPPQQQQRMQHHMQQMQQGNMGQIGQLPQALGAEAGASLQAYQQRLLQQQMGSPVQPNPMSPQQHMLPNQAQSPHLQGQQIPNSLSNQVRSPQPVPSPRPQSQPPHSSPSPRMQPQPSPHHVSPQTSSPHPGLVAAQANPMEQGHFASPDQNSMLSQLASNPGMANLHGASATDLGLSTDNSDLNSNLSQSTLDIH
Experimental: (§5) The effect of P1, P2, P3 and P4 (synthesized in accordance with Example 5) on p300 localization was examined using confocal laser scanning microscopy. […] Cover slips were mounted on glass microscope slides with ProLong Diamond Antifade reagent (Life Technologies). Protein targets were localized by confocal laser scanning microscopy as described above. TNFI and PCC(r) were calculated using ImageJ software as previously described.

[10] = test system: acetylated PD-L1 and p300; assay: Colocalization (PCC(r)) of acetylated PD-L1 and p300 in MDA-MB-231 cells; format: cell-based, human; conditions: 50 μm
Experimental: as §5

| p300 nuclear expression [9] | SMILES | PD-L1 in the nucleus of surviving, resistant xenograft cells [1] | CD44^hiCD24^lo CSCs (%) [2] [%] | COI, Live Single CD44^hiCD24^lo CSCs (Cell Count) [2] | COI (Cell Count) [3] | COI, Live Single Cells (Cell Count) [3] | COI, Single (Cell Count) [3] | Total Cell Count [3] | localization of PD-L1 [4] | localization of acetylated PD-L1 [5] | expression / localization of EHTM2 [6] | expression / nuclear localization of DMNTI [7] | expression / nuclear localization of SETDB1 [8] | colocalization of acetylated PD-L1 and p300 [10] |
| --- | --- | --- | --- | --- | --- | --- | --- | --- | --- | --- | --- | --- | --- | --- |
|  | CC(=O)O[C@@]12CO[C@@H]1C[C@H](O)[C@@]1(C)C(=O)[C@H](O)C3=C(C)[C@@H](OC(=O)[C@H](O)[C@@H](NC(=O)OC(C)(C)C)c4ccccc4)C[C@@](O)([C@@H](OC(=O)c4ccccc4)[C@H]21)C3(C)C [docetaxel] | higher levels of PD-L1 in the nucleus |  |  |  |  |  |  |  |  |  |  |  |  |
| slightly decreased | CCCCCCCCCCCCCC(=O)N[C@@H](Cc1ccccc1)C(=O)N[C@@H](CCCNC(=N)N)C(=O)N[C@@H](CC(C)C)C(=O)N[C@@H](CCCNC(=N)N)C(=O)N[C@@H](CCCCN)C(=O)NCC(=O)N[C@@H](CCCNC(=N)N)C(=O)N[C@@H](CCSC)C(=O)N[C@@H](CCSC)C(=O)N[C@@H](CC(=O)O)C(=O)N[C@H](C(=O)N[C@@H](CCCCN)C(=O)N[C@@H](CCCCN)C(N)=O)C(C)C [Peptide P4, Myristoyl-FRLRKGRMMDVKK-NH2] (Myristoyl-FRLRKGRMMDVKK-NH2) |  | 87.66 | 3311 | 4910 | 3777 | 3903 | 7923 | no effect | no effect | did not have a significant effect | inhibited | inhibited | no effect |
